Experimental data as given in PubChem BioAssay (NCI).
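Exposure lasted 48 hours, with cells grown in 96-well plates and compounds tested at five concentrations. Here, GI50 denotes the concentration required for 50% inhibition of growth. Definition used: TGI = concentration required for complete inhibition of growth.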

Test system: SK-MEL-5 melanoma
Assay: NCI tumour cell line growth inhibition, 48 h

`COC1OC2COC(C)(C)OC2C2OC(C)(C)OC12` (stereo not drawn) and `C=C1CC=CC(C)(C)C1C/C=C(\C)C(O)CBr` (stereo not drawn) cannot be ordered by TGI: greater than 100 µM for the first, greater than 100 µM for the second.

First: CCNC(=S)N/N=C/c1ccccn1
Second: Nc1n[nH]c2ccccc12
The TGI of the first is lower: 19.9 µM for the first, greater than 100 µM for the second.

First: COc1ccc(CCCCl)c(C2=NCCc3ccccc32)c1
Second: O=C1NN=C(c2c[nH]c3ccccc23)CC1NCc1ccccc1 (stereo not drawn)
The TGI of the first is lower: 45 µM for the first, greater than 100 µM for the second.

`O=C(CN=C(CN(c1ccccc1)c1ccccc1)Oc1c(Cl)cc(Cl)cc1Cl)n1cnc2ccccc21` and `O=C(O)c1cc2ccccc2c(S(=O)(=O)O)c1O` cannot be ordered by TGI: greater than 100 µM for the first, greater than 100 µM for the second.

Compared with `O=C(NCCCNCCCCNCCCNC(=O)C(F)(F)F)C(F)(F)F`, `FC(F)=C(c1ccc(-c2ccc(Cl)cc2)cc1)C(F)(F)F` is lower in TGI: greater than 100 µM for the first, 32.9 µM for the second.

`CCOC(=O)c1[nH]c2nc(SC)nc(NC)c2c1N` and `C/C(=N\Nc1nc2ccccc2s1)c1cccnn1` cannot be ordered by TGI: greater than 100 µM for the first, greater than 100 µM for the second.

Going from `Cc1cccc(NC(Nc2cccc(C)c2)=C(C(Cl)=C(Cl)Cl)[N+](=O)[O-])c1` to `COC(=O)[C@H]1C=C[C@H](OC2OC(COC(C)=O)C(OC(C)=O)C(OC(C)=O)C2OC(C)=O)n2c(=O)n(-c3ccccc3)c(=O)n21` (stereo partly drawn), the TGI rises from 19.6 µM to greater than 22.4 µM.

Test system: OVCAR-5 ovarian
Assay: NCI tumour cell line growth inhibition, 48 h

`COc1cc2c(cc1O)CC[n+]1cc3c(OC)c(OC)ccc3cc1-2` and `COc1ccc(CCCCl)c(C2=NCCc3ccccc32)c1` cannot be ordered by TGI: greater than 100 µM for the first, greater than 100 µM for the second.

Going from `CC[P+](C#Cc1ccccc1)(c1ccccc1)c1ccccc1` to `O=C(CN=C(CN(c1ccccc1)c1ccccc1)Oc1c(Cl)cc(Cl)cc1Cl)n1cnc2ccccc21`, the TGI rises from 16.3 µM to greater than 100 µM.

Going from `Cc1ccc(C(=O)c2[nH]c(Nc3cc(C)ccn3)c(C(=S)Nc3ccccc3)c2N)cc1` to `Cc1cc(C)nc(NS(=O)(=O)c2ccc(Nc3c4ccccc4nc4c(C(=O)NCCO)cccc34)cc2)n1`, the TGI falls from greater than 100 µM to 91.7 µM.

`CC(C)Cc1c(C#N)c(C#N)c(N)n1Cc1ccccc1` and `Nc1n[nH]c2ccccc12` cannot be ordered by TGI: greater than 100 µM for the first, greater than 100 µM for the second.

`NS(=O)(=O)c1nnc(NSc2ccc([N+](=O)[O-])cc2)s1` and `O=C(O)c1cc2ccccc2c(S(=O)(=O)O)c1O` cannot be ordered by TGI: greater than 100 µM for the first, greater than 100 µM for the second.

Compared with `Nc1nc(Nc2ccc(OCc3cccc(F)c3)cc2)c2c(n1)[nH]c1ccc(O)cc12`, `O=c1oc2ccccc2c2nc3ccccc3cc12` is higher in TGI: 14.5 µM for the first, greater than 100 µM for the second.

`CC1=NC(C)(C)N(O)C1(C)C` and `COC1OC2COC(C)(C)OC2C2OC(C)(C)OC12` (stereo not drawn) cannot be ordered by TGI: greater than 100 µM for the first, greater than 100 µM for the second.

`Clc1cccc(C2ON=C(c3ccccc3)N2C23CC4CC(CC(C4)C2)C3)c1Cl` (stereo not drawn) and `O=C1NN=C(c2c[nH]c3ccccc23)CC1NCc1ccccc1` (stereo not drawn) cannot be ordered by TGI: greater than 10 µM for the first, greater than 100 µM for the second.

`CCN(CC(=O)O)CC(=O)O` and `C=C1CC=CC(C)(C)C1C/C=C(\C)C(O)CBr` (stereo not drawn) cannot be ordered by TGI: greater than 100 µM for the first, greater than 100 µM for the second.

`CC(C)(C)c1ccc2c(c1)OCc1n[nH]c(n1)COc1cc(C(C)(C)C)ccc1OCCOCCO2` and `COC(=O)[C@H]1C=C[C@H](OC2OC(COC(C)=O)C(OC(C)=O)C(OC(C)=O)C2OC(C)=O)n2c(=O)n(-c3ccccc3)c(=O)n21` (stereo partly drawn) are within 1.5-fold of each other in TGI: 22.6 µM for the first, 25.7 µM for the second.

`CCNC(=S)N/N=C/c1ccccn1` and `C/C(=N\Nc1nc2ccccc2s1)c1cccnn1` cannot be ordered by TGI: greater than 100 µM for the first, greater than 100 µM for the second.

Going from `O=C(NCCCNCCCCNCCCNC(=O)C(F)(F)F)C(F)(F)F` to `FC(F)=C(c1ccc(-c2ccc(Cl)cc2)cc1)C(F)(F)F`, the TGI falls from greater than 100 µM to 31.3 µM.

`CCOC(=O)c1[nH]c2nc(SC)nc(NC)c2c1N` and `Cc1cccc(NC(Nc2cccc(C)c2)=C(C(Cl)=C(Cl)Cl)[N+](=O)[O-])c1` cannot be ordered by TGI: greater than 100 µM for the first, greater than 72.1 µM for the second.

With `Nc1nc(Nc2ccc(OCc3cccc(F)c3)cc2)c2c(n1)[nH]c1ccc(O)cc12` the GI50 was 3.38 µM.

Test system: HCT-15 colon
Assay: NCI tumour cell line growth inhibition, 48 h

`COc1cc2c(cc1O)CC[n+]1cc3c(OC)c(OC)ccc3cc1-2` and `COc1ccc(CCCCl)c(C2=NCCc3ccccc32)c1` cannot be ordered by TGI: greater than 100 µM for the first, greater than 100 µM for the second.

Compared with `CC[P+](C#Cc1ccccc1)(c1ccccc1)c1ccccc1`, `O=C(CN=C(CN(c1ccccc1)c1ccccc1)Oc1c(Cl)cc(Cl)cc1Cl)n1cnc2ccccc21` is higher in TGI: 17.7 µM for the first, greater than 100 µM for the second.

First: Cc1ccc(C(=O)c2[nH]c(Nc3cc(C)ccn3)c(C(=S)Nc3ccccc3)c2N)cc1
Second: Cc1cc(C)nc(NS(=O)(=O)c2ccc(Nc3c4ccccc4nc4c(C(=O)NCCO)cccc34)cc2)n1
The TGI of the first is higher: greater than 100 µM for the first, 46 µM for the second.

`CC(C)Cc1c(C#N)c(C#N)c(N)n1Cc1ccccc1` and `Nc1n[nH]c2ccccc12` cannot be ordered by TGI: greater than 100 µM for the first, greater than 100 µM for the second.

`NS(=O)(=O)c1nnc(NSc2ccc([N+](=O)[O-])cc2)s1` and `O=C(O)c1cc2ccccc2c(S(=O)(=O)O)c1O` cannot be ordered by TGI: greater than 100 µM for the first, greater than 100 µM for the second.

First: Nc1nc(Nc2ccc(OCc3cccc(F)c3)cc2)c2c(n1)[nH]c1ccc(O)cc12
Second: O=c1oc2ccccc2c2nc3ccccc3cc12
The TGI of the first is lower: 16.2 µM for the first, greater than 100 µM for the second.

`CC1=NC(C)(C)N(O)C1(C)C` and `COC1OC2COC(C)(C)OC2C2OC(C)(C)OC12` (stereo not drawn) cannot be ordered by TGI: greater than 100 µM for the first, greater than 100 µM for the second.

`Clc1cccc(C2ON=C(c3ccccc3)N2C23CC4CC(CC(C4)C2)C3)c1Cl` (stereo not drawn) and `O=C1NN=C(c2c[nH]c3ccccc23)CC1NCc1ccccc1` (stereo not drawn) cannot be ordered by TGI: greater than 10 µM for the first, greater than 100 µM for the second.

`CCN(CC(=O)O)CC(=O)O` and `C=C1CC=CC(C)(C)C1C/C=C(\C)C(O)CBr` (stereo not drawn) cannot be ordered by TGI: greater than 100 µM for the first, greater than 100 µM for the second.

Going from `CC(C)(C)c1ccc2c(c1)OCc1n[nH]c(n1)COc1cc(C(C)(C)C)ccc1OCCOCCO2` to `COC(=O)[C@H]1C=C[C@H](OC2OC(COC(C)=O)C(OC(C)=O)C(OC(C)=O)C2OC(C)=O)n2c(=O)n(-c3ccccc3)c(=O)n21` (stereo partly drawn), the TGI falls from 18.3 µM to 3.55 µM (5.2-fold).

`CCNC(=S)N/N=C/c1ccccn1` and `C/C(=N\Nc1nc2ccccc2s1)c1cccnn1` cannot be ordered by TGI: greater than 100 µM for the first, greater than 100 µM for the second.

Compared with `O=C(NCCCNCCCCNCCCNC(=O)C(F)(F)F)C(F)(F)F`, `FC(F)=C(c1ccc(-c2ccc(Cl)cc2)cc1)C(F)(F)F` is lower in TGI: greater than 100 µM for the first, 42.2 µM for the second.

Going from `CCOC(=O)c1[nH]c2nc(SC)nc(NC)c2c1N` to `Cc1cccc(NC(Nc2cccc(C)c2)=C(C(Cl)=C(Cl)Cl)[N+](=O)[O-])c1`, the TGI falls from greater than 100 µM to 33.1 µM.

Compound `Nc1nc(Nc2ccc(OCc3cccc(F)c3)cc2)c2c(n1)[nH]c1ccc(O)cc12` has a GI50 of 3.61 µM.
